According to patent publication US11492385B2, “Long-acting co-agonists of the glucagon and GLP-1 receptors” (Merck Sharp & Dohme Corp., priority 2015, dated 2022):
Starred links: 1 amine or outer side, 2 acyl side, 3 side chain; linkers in the order of their positions; H or OH if unused. Non-standard residues stand in square brackets, D forms with d. Residues, ends and D or L forms follow the SMILES beside them. Groups on a side chain read outwards from the residue. *: point of attachment. Phe(4-CH2NH2) = NCc1ccc(C[C@H](N)C(=O)O)cc1; C18 diacid = O=C(O)CCCCCCCCCCCCCCCCC(=O)*; γGlu = O=C(O)[C@H](CCC(=O)[*:2])N[*:1]; Met(O2) = CS(=O)(=O)CC[C@H](N)C(=O)O; αMeD = C[C@](N)(CC(=O)O)C(=O)O; AEEA = NCCOCCOCC(=O)O; Aib = CC(C)(N)C(=O)O

Tests used:
human GCGR = target: T1, human GCGR (Homo sapiens, UniProt P47871); assay: cAMP activity assay, cells expressing human GCGR; format: cell-based; conditions: for EC50: cAMP production, cells expressing human GCGR, assay buffer with or without 20% human serum (not stated which), read-out: GCGR EC50 human; for hGCGR/hGLP1R (hTone): ratio of human GCGR EC50 to human GLP1R EC50
T1 construct: expressed in transfected cells; kept under Blasticidin and Hygromycin selection
T1 sequence (P47871 26-477): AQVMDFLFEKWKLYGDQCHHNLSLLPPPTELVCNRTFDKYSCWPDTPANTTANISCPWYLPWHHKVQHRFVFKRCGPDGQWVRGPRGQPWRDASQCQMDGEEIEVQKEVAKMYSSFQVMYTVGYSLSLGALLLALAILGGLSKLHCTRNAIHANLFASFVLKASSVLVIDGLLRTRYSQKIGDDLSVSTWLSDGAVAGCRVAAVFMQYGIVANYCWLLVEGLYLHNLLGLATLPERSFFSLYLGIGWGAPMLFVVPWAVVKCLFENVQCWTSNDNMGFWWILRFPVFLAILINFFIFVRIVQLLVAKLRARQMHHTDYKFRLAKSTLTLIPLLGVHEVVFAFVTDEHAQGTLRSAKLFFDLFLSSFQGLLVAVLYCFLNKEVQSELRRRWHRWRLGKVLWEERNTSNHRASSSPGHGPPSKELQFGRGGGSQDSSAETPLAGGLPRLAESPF
How it was run: (§1)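 cAMP production in human GLP1R- or GCGR-expressing cells was read by luminescence after overnight dark incubation at room temperature. Peptides were given as 10-point DMSO dilution series, with native GLP-1 and glucagon as references. Four-parameter logistic fitting gave EC50.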

human GLP1R = target: T2, human GLP1R (Homo sapiens, UniProt P43220); assay: cAMP activity assay, cells expressing human GLP1R; format: cell-based; conditions: cAMP production, assay buffer with or without 20% human serum (not stated which)
T2 construct: expressed in transfected cells; kept under Blasticidin and Hygromycin selection
T2 sequence (P43220 24-463): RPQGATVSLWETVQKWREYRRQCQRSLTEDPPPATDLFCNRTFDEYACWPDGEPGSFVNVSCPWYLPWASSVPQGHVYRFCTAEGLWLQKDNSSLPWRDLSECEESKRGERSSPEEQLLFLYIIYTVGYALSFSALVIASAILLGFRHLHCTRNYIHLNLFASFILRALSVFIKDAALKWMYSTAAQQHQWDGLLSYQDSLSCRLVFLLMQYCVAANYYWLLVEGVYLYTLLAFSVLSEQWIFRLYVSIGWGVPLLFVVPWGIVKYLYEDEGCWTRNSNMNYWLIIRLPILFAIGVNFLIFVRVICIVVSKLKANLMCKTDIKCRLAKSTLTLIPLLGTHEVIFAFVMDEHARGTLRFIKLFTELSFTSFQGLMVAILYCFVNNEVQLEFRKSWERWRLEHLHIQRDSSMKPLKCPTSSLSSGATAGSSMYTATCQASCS
How it was run: as §1

EC50 (human GCGR)	hGCGR/hGLP1R (hTone) (human GCGR)	EC50 (human GLP1R)	SMILES
0.36 nM	0.9	0.42 nM	CC(C)C[C@H](NC(=O)[C@H](Cc1ccc(O)cc1)NC(=O)[C@H](CCCCN)NC(=O)[C@H](CO)NC(=O)[C@H](Cc1ccc(O)cc1)NC(=O)[C@H](CC(=O)O)NC(=O)[C@H](CO)NC(=O)[C@@H](NC(=O)[C@H](Cc1ccccc1)NC(=O)[C@@H](NC(=O)CNC(=O)[C@H](CCC(N)=O)NC(=O)C(C)(C)NC(=O)[C@@H](N)Cc1c[nH]cn1)[C@@H](C)O)[C@@H](C)O)C(=O)N[C@@H](CC(=O)O)C(=O)N[C@@H](C)C(=O)N[C@@H](CCCNC(=N)N)C(=O)N[C@@H](C)C(=O)N[C@@H](C)C(=O)N[C@@H](CCC(N)=O)C(=O)N[C@@H](Cc1ccc(CNC(=O)COCCOCCNC(=O)COCCOCCNC(=O)CC[C@H](NC(=O)CCCCCCCCCCCCCCCCC(=O)O)C(=O)O)cc1)C(=O)N[C@@H](Cc1ccccc1)C(=O)N[C@H](C(=O)N[C@@H](CCC(N)=O)C(=O)N[C@@H](Cc1c[nH]c2ccccc12)C(=O)N[C@@H](CC(C)C)C(=O)N[C@@H](CC(C)C)C(=O)N[C@@](C)(CC(=O)O)C(=O)N[C@H](C(N)=O)[C@@H](C)O)C(C)C [compound 75] (H-H[Aib]QGTFTSDYSKYLDARAAQ[Phe(4-CH2NH2)]([AEEA-AEEA-γGlu-C18 diacid])FVQWLL[αMeD]T-NH2)
0.74 nM	1.2	0.61 nM	CC(C)C[C@H](NC(=O)[C@H](CC(C)C)NC(=O)[C@H](CCCCN)NC(=O)[C@H](CO)NC(=O)[C@H](Cc1ccc(O)cc1)NC(=O)[C@H](CC(=O)O)NC(=O)[C@H](CO)NC(=O)[C@@H](NC(=O)[C@H](Cc1ccccc1)NC(=O)[C@@H](NC(=O)CNC(=O)[C@H](CCC(N)=O)NC(=O)C(C)(C)NC(=O)[C@@H](N)Cc1c[nH]cn1)[C@@H](C)O)[C@@H](C)O)C(=O)N[C@@H](CC(=O)O)C(=O)N[C@@H](C)C(=O)N[C@@H](CCCNC(=N)N)C(=O)N[C@@H](C)C(=O)N[C@@H](C)C(=O)N[C@@H](CCCCNC(=O)COCCOCCNC(=O)COCCOCCNC(=O)CC[C@H](NC(=O)CCCCCCCCCCCCCCCCC(=O)O)C(=O)O)C(=O)N[C@@H](CC(=O)O)C(=O)N[C@@H](Cc1ccccc1)C(=O)N[C@H](C(=O)N[C@@H](CCC(N)=O)C(=O)N[C@@H](Cc1c[nH]c2ccccc12)C(=O)N[C@@H](CC(C)C)C(=O)N[C@@H](CCS(C)(=O)=O)C(=O)N[C@@H](CC(=O)O)C(=O)N[C@H](C(N)=O)[C@@H](C)O)C(C)C [compound 76] (H-H[Aib]QGTFTSDYSKLLDARAAK([AEEA-AEEA-γGlu-C18 diacid])DFVQWL[Met(O2)]DT-NH2; N-terminus assumed)
1.09 nM	2.3	0.47 nM	CC(C)C[C@H](NC(=O)[C@H](Cc1ccc(O)cc1)NC(=O)[C@H](CCCCN)NC(=O)[C@H](CO)NC(=O)[C@H](Cc1ccc(O)cc1)NC(=O)[C@H](CC(=O)O)NC(=O)[C@H](CO)NC(=O)[C@@H](NC(=O)[C@H](Cc1ccccc1)NC(=O)[C@@H](NC(=O)CNC(=O)[C@H](CCC(N)=O)NC(=O)C(C)(C)NC(=O)[C@@H](N)Cc1c[nH]cn1)[C@@H](C)O)[C@@H](C)O)C(=O)N[C@@H](CC(=O)O)C(=O)N[C@@H](C)C(=O)N[C@@H](CCCNC(=N)N)C(=O)N[C@@H](C)C(=O)N[C@@H](C)C(=O)N[C@@H](CCC(N)=O)C(=O)N[C@@H](CC(=O)O)C(=O)N[C@@H](Cc1ccccc1)C(=O)N[C@H](C(=O)N[C@@H](CCC(N)=O)C(=O)N[C@@H](Cc1c[nH]c2ccccc12)C(=O)N[C@@H](CC(C)C)C(=O)N[C@@H](CCS(C)(=O)=O)C(=O)N[C@@H](Cc1ccc(CNC(=O)COCCOCCNC(=O)COCCOCCNC(=O)CC[C@H](NC(=O)CCCCCCCCCCCCCCCCC(=O)O)C(=O)O)cc1)C(=O)N[C@H](C(N)=O)[C@@H](C)O)C(C)C [compound 77] (H-H[Aib]QGTFTSDYSKYLDARAAQDFVQWL[Met(O2)][Phe(4-CH2NH2)]([AEEA-AEEA-γGlu-C18 diacid])T-NH2; N-terminus assumed)
